Laboratory results as given in ChEMBL document CHEMBL5727155, “Ethynyl derivatives” (2018).

Target: Metabotropic glutamate receptor 4 (Homo sapiens, UniProt Q14833)
Experiment: Ca2+ Mobilization In Vitro Assay: A monoclonal HEK-293 cell line stably transfected with a cDNA encoding for the human mGlu4 receptor was generated; for the work with mGlu4 Positive Allosteric Modulators (PAMs), a cell line with low receptor expression levels and low constitutive receptor activity was selected to allow the differentiation of agonistic versus PAM activity. Cells were cultured according to standard protocols (Freshney, 2000) in Dulbecco's Modified Eagle Medium with high glucose supplemented with 1 mM glutamine, 10% (vol/vol) heat-inactivated bovine calf serum, Penicillin/Streptomycin, 50 μg/ml hygromycin and 15 μg/ml blasticidin (all cell culture reagents and antibiotics from Invitrogen, Basel, Switzerland).About 24 hrs before an experiment, 5×10^4 cells/well were seeded in poly-D-lysine coated, black/clear-bottomed 96-well plates. The cells were loaded with 2.5 μM Fluo-4AM in loading buffer (1×HBSS, 20 mM HEPES) for 1 hr at 37° C. and washed five times with loading buffer. The cells were transferred into a Functional Drug Screening System 7000 (Hamamatsu, Paris, France), and 11 half logarithmic serial dilutions of test compound at 37° C. were added and the cells were incubated for 10-30 min. with on-line recording of fluorescence. […]

Sequence of Metabotropic glutamate receptor 4 (Q14833 whole entry): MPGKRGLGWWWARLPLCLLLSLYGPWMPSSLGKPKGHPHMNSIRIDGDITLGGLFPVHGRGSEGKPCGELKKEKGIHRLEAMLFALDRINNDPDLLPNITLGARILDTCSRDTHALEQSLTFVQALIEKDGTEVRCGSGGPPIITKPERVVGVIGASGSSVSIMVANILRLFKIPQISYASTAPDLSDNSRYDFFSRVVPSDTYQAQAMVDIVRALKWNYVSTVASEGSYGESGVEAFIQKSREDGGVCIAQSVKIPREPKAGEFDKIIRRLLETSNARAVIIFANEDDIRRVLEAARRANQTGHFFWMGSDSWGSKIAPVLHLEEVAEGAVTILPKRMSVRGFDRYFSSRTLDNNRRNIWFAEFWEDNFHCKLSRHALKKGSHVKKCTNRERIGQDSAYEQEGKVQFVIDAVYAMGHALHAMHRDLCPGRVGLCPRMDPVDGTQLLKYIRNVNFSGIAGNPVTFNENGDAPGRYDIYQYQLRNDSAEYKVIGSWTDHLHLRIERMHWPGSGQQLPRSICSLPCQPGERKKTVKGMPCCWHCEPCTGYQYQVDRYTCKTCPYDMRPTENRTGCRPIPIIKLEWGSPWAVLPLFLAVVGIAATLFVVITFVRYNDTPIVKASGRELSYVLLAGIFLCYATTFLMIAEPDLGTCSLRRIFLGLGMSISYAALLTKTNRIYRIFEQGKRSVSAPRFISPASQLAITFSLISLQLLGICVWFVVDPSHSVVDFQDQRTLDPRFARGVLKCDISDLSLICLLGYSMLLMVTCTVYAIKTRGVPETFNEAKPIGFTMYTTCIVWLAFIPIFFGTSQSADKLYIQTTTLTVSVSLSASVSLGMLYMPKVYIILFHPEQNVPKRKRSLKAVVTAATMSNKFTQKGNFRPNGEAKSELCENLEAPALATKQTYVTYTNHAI

With `CC(C)(C)Oc1ncc(N2CCN3C(=O)N(c4c(F)cc(C#Cc5ccccc5)cc4F)C(=O)C[C@@]3(C)C2=O)cn1` the EC50 was 157 nM.
